Results reported in patent US5925664A, “Method for treating ocular hypertension and glaucoma” (Sankyo Company, Limited, priority 1994, dated 1999).

Key:
[1] = tested on: ocular hypertension model; assay: Ocular tension lowering effect in rabbit ocular hypertension model (eye drops); assay type: in vivo, New Zealand white rabbits; settings: 50 μl by dropping; for AUC (area between the ocular tension curves of control group and drug application group): over 2 hours; for Maximum value of the lowered ocular tension: over 2 hours at intervals of 30 minutes
Description: New Zealand white rabbits each weighing 2 to 3 kg were used.
According to the method reported by Kurihara et al. [Ophthalmologic Pharmacology 4, 62-64, (1990)], an ocular hypertension model was prepared to examine the ocular tension lowering effect of the test compounds. After general anaesthesia with urethane, the ocular tension of the test rabbit was determined by use of a tonometer (Alcon Applanation Pneumatonography).
After a local anaesthetic was applied to the rabbit eye by dropping, 0.1 ml of 5% sodium chloride solution was injected into the vitreous body through a 30-gauge injection needle. At the time, 30 minutes after injection, when ocular hypertension was confirmed, 50 μl of a sample solution was applied by dropping. Then, the ocular tension was determined over 2 hours at intervals of 30 minutes.
The area (AUC) between the ocular tension curve obtained from the control group (without drug application) and that obtained from the drug application group, and the maximum value of the lowered ocular tension were calculated to regard as the indices of ocular tension lowering effect.

[2] = eye application; cited from earlier work

Structure (SMILES)	AUC (area between the ocular tension curves of control group and drug application group) ([1]; applied concentration 1.0%)	Maximum value of the lowered ocular tension ([1]; applied concentration 1.0%)	also measured
CCCc1nc(C(C)(C)O)c(C(=O)O)n1Cc1ccc(-c2nn[nH]n2)cc1 [Compound F]	4.93 mmHg · hr	4.7 mmHg	
CCCCc1nc(C(C)(C)O)c(C(=O)O)n1Cc1ccc(-c2ccccc2C(=O)O)cc1 [Compound E]	4.90 mmHg · hr	7.6 mmHg	
CCCCc1nc(Cl)c(CO)n1Cc1ccc(-c2ccccc2-c2nnn[nH]2)cc1 [DUP 753, reference compound]	0.28 mmHg · hr	1.3 mmHg	AUC (area between the ocular tension curves of control group and drug application group) ([1]; applied concentration 3.0%): 2.38 mmHg · hr; Maximum value of the lowered ocular tension ([1]; applied concentration 3.0%): 3.5 mmHg
CCCc1nc(C(C)C)c(C(=O)O)n1Cc1ccc(-c2ccccc2-c2nn[nH]n2)cc1 [Compound C]	3.98 mmHg · hr	2.7 mmHg	
CCCc1nc(CC)c(C(=O)O)n1Cc1ccc(-c2ccccc2-c2nn[nH]n2)cc1 [Compound D]			AUC (area between the ocular tension curves of control group and drug application group) ([1]; applied concentration 0.2%): 6.21 mmHg · hr; Maximum value of the lowered ocular tension ([1]; applied concentration 0.2%): 6.4 mmHg
CCc1nc2cccc(C(=O)O)c2n1Cc1ccc(-c2ccccc2C(=O)C(=O)O)cc1 [Compound I]	5.33 mmHg · hr	7.3 mmHg	
CCCc1nc(C(C)O)c(C(=O)O)n1Cc1ccc(-c2ccccc2-c2nn[nH]n2)cc1 (stereo not drawn) [Compound G]	5.45 mmHg · hr	8.6 mmHg	
CCCc1nc(C(C)(C)O)c(C(=O)O)n1Cc1ccc(-c2ccccc2C(=O)O)cc1 [Compound B]	3.21 mmHg · hr	2.6 mmHg	
CCCc1nc(C(C)(C)O)c(C(=O)O)n1Cc1ccc(-c2ccccc2-c2nn[nH]n2)cc1 [Compound A]	11.18 mmHg · hr	9.8 mmHg	
CCCCC(=O)N(Cc1ccc(-c2ccccc2-c2nnn[nH]2)cc1)CC1(C(=O)O)CCCC1 [CGP 49870]			ocular tension lowering activity [2]: showed ocular tension lowering activity
CCCc1nc(C(C)(C)O)c(C(=O)O)n1Cc1ccc(-c2ccccc2C(=O)C(=O)O)cc1 [Compound H]	5.58 mmHg · hr	8.6 mmHg	
CCCCC(=O)N(Cc1ccc(-c2ccccc2-c2nnn[nH]2)cc1)[C@H](C(=O)O)C(C)C [CGP 48933]			ocular tension lowering activity [2]: showed ocular tension lowering activity
